Experimental data reported in patent US20260224486A1, “DIANHYDROHEXITOL BASED IONIZABLE LIPIDS FOR NUCLEIC ACID DELIVERY” (SANOFI PASTEUR INC., priority 2023, published 2026).

Tested on: BALB/cJ mice
Experiment: Delivery of hEPO mRNA by intramuscular administration of LNPs; serum hEPO by ELISA
Format: in vivo, Mouse
Experimental: In summary, lipid screening studies were conducted with female BALB/cJ mice 6-8 weeks of age. Mice were dosed with 0.1 μg in 30 μL of LNPs by a single intramuscular (IM) injection into the gastrocnemius leg muscle. Blood samples were taken 6 and 24 hours post injection and hEPO levels were measured in the blood serum of the mice using an ELISA assay according to the manufacture's protocol.
Treatment Regimen: On Day 1, animals from Groups 1-33 were dosed via intramuscular injection while under light isoflurane anesthesia according to the study design table above. Animals in Groups 1-33 were injected with EPO mRNA LNPs in the right leg only. Groups 1 and 17 animals received MC3 control.
Interim Sample Collections: Interim whole blood (^~50 μL) was collected by tail snip or saphenous vein at 6 and 24 hours post dose administration (±5%). Blood samples were collected into serum separator tubes, allowed to clot at room temperature for at least 10 minutes, centrifuged at ambient temperature at minimum 1000 g for 10 minutes and the serum was extracted. All serum samples were stored at nominally −70° C. until analysis hEPO by the Testing Facility. The results of the EPO analysis were included in the Data Submission.
Terminal Blood Collections: Whole blood was collected via cardiac puncture into serum separator tube, allowed to clot at room temperature for at least 10 minutes, centrifuged at ambient temperature at minimum 1000 g for 10 minutes and the serum was extracted. Serum samples were stored at nominally −70° C. until analyzed for hEPO by the Test Facility.
ELISA Assay: Human erythropoietin (hEPO) levels in sera samples were determined by ELISA kit (R&D systems, Cat #DEP-00) according to the manufactory instruction and the results were included in the Data Submission. The “shaker” protocol was used. The serum samples were diluted between 1:40 and 1:100.

[1] = Table 4, further lipids, mouse serum 6 hours post IM injection of hEPO mRNA LNP as in example 3
[2] = Table 5, comparative ether compounds, mouse serum 6 hours post IM injection of hEPO mRNA LNP as in example 3

| SMILES | hEPO 6 Hr (ng/ml) Mean [1] | also measured |
| --- | --- | --- |
| CCCCCCCCCCCOC(=O)CCCCCN(CCCCCCCC(=O)OC(CCCCCCCC)CCCCCCCC)CCCCSC(=O)N[C@H]1CO[C@H]2[C@@H]1OC[C@@H]2NC(=O)SCCCCN(CCCCCCCC(=O)OC(CCCCCCCC)CCCCCCCC)CCCCCC(=O)OCCCCCCCCCCC (stereo in doubt) [Compound 84] | 22.1 ng/mL | – |
| CCCCCCCCCCCOC(=O)CCCC(O)CN(CCCC(=O)O[C@@H]1CO[C@H]2[C@@H]1OC[C@H]2OC(=O)CCCN(CC(O)CCCCCOC(=O)C(CCCCCCCC)CCCCCCCC)CC(O)CCCC(=O)OCCCCCCCCCCC)CC(O)CCCCCOC(=O)C(CCCCCCCC)CCCCCCCC (stereo partly shown) [Compound 12] | 34.4 ng/mL | – |
| CCCCCCCCCCC(O)CN(CCCC(=O)S[C@H]1CO[C@H]2[C@@H]1OC[C@@H]2SC(=O)CCCN(CC(O)CCCCCCCCCC)CC(O)CCCCCCCCCC)CC(O)CCCCCCCCCC (stereo partly shown) [Compound 44] | 2.0 ng/mL | – |
| CCCCCCCCCCC(O)CN(CCCSS[C@H]1CO[C@H]2[C@@H]1OC[C@@H]2SSCCCN(CC(O)CCCCCCCCCC)CC(O)CCCCCCCCCC)CC(O)CCCCCCCCCC (stereo partly shown) [Compound 45] | 2.2 ng/mL | – |
| CCCCCCCCCCC(O)CN(CCCCS[C@H]1CO[C@H]2[C@@H]1OC[C@@H]2SCCCCN(CC(O)CCCCCCCCCC)CC(O)CCCCCCCCCC)CC(O)CCCCCCCCCC (stereo partly shown) [Compound 46] | 2.1 ng/mL | – |
| CCCCCCCCCCC(O)CCN(CCCNC(=O)O[C@@H]1CO[C@H]2[C@@H]1OC[C@H]2OC(=O)NCCCN(CC(O)CCCCCCCCCC)CC(O)CCCCCCCCCC)C(O)CCCCCCCCCC (stereo partly shown) [Compound 48] | 81.3 ng/mL | – |
| CCCCCCCCCCC(O)CN(CCCCC(=O)O[C@@H]1CO[C@H]2[C@@H]1OC[C@H]2OC(=O)CCCN(CC(O)CCCCCCCCCC)CC(O)CCCCCCCCCC)CC(O)CCCCCCCCCC (stereo partly shown) [Compound 56] | 51.9 ng/mL | – |
| CCCCCCCCCCCCCCC(O)CN(CCCC(=O)O[C@@H]1CO[C@H]2[C@@H]1OC[C@@H]2OC(=O)CCCCN(CC(O)CCCCCCCCCC)CC(O)CCCCCCCCCC)CC(O)CCCCCCCCCCCCCC (stereo partly shown) [Compound 63] | 60.5 ng/mL | – |
| CCCCCCCCCCCOC(=O)CCCC(O)CN(CCCC(=O)O[C@H]1CO[C@H]2[C@@H]1OC[C@H]2OC(=O)CCCN(CC(O)CCCCCOC(=O)C(CCCCCCCC)CCCCCCCC)CC(O)CCCC(=O)OCCCCCCCCCCC)CC(O)CCCCCOC(=O)C(CCCCCCCC)CCCCCCCC (stereo partly shown) [Compound 64] | 36.2 ng/mL | – |
| CCCCCCCCCCCOC(=O)CCCC(O)CN(CCCCC(=O)O[C@@H]1CO[C@H]2[C@@H]1OC[C@@H]2OC(=O)CCCN(CC(O)CCCCCC(=O)OC(CCCCCCCC)CCCCCCCC)CC(O)CCCC(=O)OCCCCCCCCCCC)CC(O)CCCCCC(=O)OC(CCCCCCCC)CCCCCCCC (stereo partly shown) [Compound 66] | 23.2 ng/mL | – |
| CCCCCCCCCCC(O)CN(CCCCCC(=O)O[C@@H]1CO[C@H]2[C@@H]1OC[C@@H]2OC(=O)CCCCN(CC(O)CCCCCCCCCC)CC(O)CCCCCCCCCC)CC(O)CCCCCCCCCC (stereo partly shown) [Compound 67] | 34.4 ng/mL | – |
| CCCCCCCCC(O)CN(CCCCC(=O)N[C@H]1CO[C@H]2[C@@H]1OC[C@@H]2NC(=O)CCCCN(CC(O)CCCCCCCC)CC(O)CCCCCCCC)CC(O)CCCCCCCC (stereo partly shown) [Compound 70] | 47.6 ng/mL | – |
| CCCCCCCCCCC(O)CN(CCCCC(=O)N[C@H]1CO[C@H]2[C@@H]1OC[C@@H]2NC(=O)CCCCN(CC(O)CCCCCCCCCC)CC(O)CCCCCCCCCC)CC(O)CCCCCCCCCC (stereo partly shown) [Compound 71] | 72.0 ng/mL | – |
| CCCCCCCCCCCOC(=O)CCCCCN(CCCCCCCC(=O)OC(CCCCCCCC)CCCCCCCC)CCCC(=O)N[C@H]1CO[C@H]2[C@@H]1OC[C@@H]2NC(=O)CCCN(CCCCCCCC(=O)OC(CCCCCCCC)CCCCCCCC)CCCCCC(=O)OCCCCCCCCCCC [Compound 72] | 6.2 ng/mL | – |
| CCCCCCCCCCCOC(=O)CCCC(O)CN(CCCC(=O)N[C@H]1CO[C@H]2[C@@H]1OC[C@@H]2NC(=O)CCCN(CC(O)CCCCCC(=O)OC(CCCCCCCC)CCCCCCCC)CC(O)CCCC(=O)OCCCCCCCCCCC)CC(O)CCCCCC(=O)OC(CCCCCCCC)CCCCCCCC (stereo partly shown) [Compound 73] | 23.4 ng/mL | – |
| CCCCCC/C=C\COC(=O)CCCCCC(O)CN(CCCC(=O)N[C@H]1CO[C@H]2[C@@H]1OC[C@@H]2NC(=O)CCCN(CC(O)CCCCCC(=O)OC/C=C\CCCCCC)CC(O)CCCCCC(=O)OC/C=C\CCCCCC)CC(O)CCCCCC(=O)OC/C=C\CCCCCC (stereo partly shown) [Compound 74] | 2.1 ng/mL | – |
| CCCCCC/C=C\COC(=O)CCCCCCCN(CCCCCCCC(=O)OC/C=C\CCCCCC)CCCC(=O)N[C@H]1CO[C@H]2[C@@H]1OC[C@@H]2NC(=O)CCCN(CCCCCCCC(=O)OC/C=C\CCCCCC)CCCCCCCC(=O)OC/C=C\CCCCCC [Compound 75] | 2.1 ng/mL | – |
| CCCCCCCCC(O)CN(CCCOC(=O)O[C@@H]1CO[C@H]2[C@@H]1OC[C@H]2OC(=O)OCCCN(CC(O)CCCCCCCC)CC(O)CCCCCCCC)CC(O)CCCCCCCC (stereo partly shown) [Compound 79] | 21.2 ng/mL | – |
| CCCCCCCCCCC(O)CN(CCCCC(=O)S[C@H]1CO[C@H]2[C@@H]1OC[C@@H]2SC(=O)CCCCN(CC(O)CCCCCCCCCC)CC(O)CCCCCCCCCC)CC(O)CCCCCCCCCC (stereo partly shown) [Compound 80] | 0.9 ng/mL | – |
| CCCCCCCCCCC(O)CN(CCCS[C@H]1CO[C@H]2[C@@H]1OC[C@@H]2SCCCN(CC(O)CCCCCCCCCC)CC(O)CCCCCCCCCC)CC(O)CCCCCCCCCC (stereo partly shown) [Compound 81] | 2.3 ng/mL | – |
| CCCCCCCCCCCCC(O)CN(CCCC(=O)S[C@H]1CO[C@H]2[C@@H]1OC[C@@H]2SC(=O)CCCN(CC(O)CCCCCCCCCCCC)CC(O)CCCCCCCCCCCC)CC(O)CCCCCCCCCCCC (stereo partly shown) [Compound 82] | 3.1 ng/mL | – |
| CCCCCCCCCCCCC(O)CN(CCCCC(=O)SC1CO[C@@H]2C(SC(=O)CCCCN(CC(O)CCCCCCCCCCCC)CC(O)CCCCCCCCCCCC)CO[C@H]12)CC(O)CCCCCCCCCCCC (stereo partly shown) [Compound 83] | 8.0 ng/mL | – |
| CCCCCC/C=C\COC(=O)CCCCCCCN(CCCCCCCC(=O)OC/C=C\CCCCCC)CCCCSC(=O)N[C@@H]1CO[C@H]2[C@@H]1OC[C@H]2NC(=O)SCCCCN(CCCCCCCC(=O)OC/C=C\CCCCCC)CCCCCCCC(=O)OC/C=C\CCCCCC [Compound 85] | 23.8 ng/mL | – |
| CCCCC/C=C\C/C=C\CCCCCCCCC(CCCCCCCC/C=C\C/C=C\CCCCC)OC(=O)CCCN(C)C [MC3, reference compound] | – | hEPO 6 Hr (ng/ml) Mean (Table 2, isosorbide-derived lipids, mouse serum 6 hours post single IM injection of 0.1 μg hEPO mRNA LNP): 7.1 ng/mL; hEPO 6 Hr (ng/mL) Mean (Table 3, isomannide-derived lipids, mouse serum 6 hours post single IM injection of 0.1 μg hEPO mRNA LNP): 5.6 ng/mL |
| CCCCCCCCC(O)CN(CCCO[C@@H]1CO[C@H]2[C@@H]1OC[C@H]2OCCCN(CC(O)CCCCCCCC)CC(O)CCCCCCCC)CC(O)CCCCCCCC (stereo partly shown) [reference compound] | – | hEPO 6 Hr (ng/ml) Mean [2]: 11.3 ng/mL |
| CCCCCCCCCCC(O)CN(CCCO[C@@H]1CO[C@H]2[C@@H]1OC[C@H]2OCCCN(CC(O)CCCCCCCCCC)CC(O)CCCCCCCCCC)CC(O)CCCCCCCCCC (stereo partly shown) [reference compound] | – | hEPO 6 Hr (ng/ml) Mean [2]: 33.8 ng/mL |
| CCCCCCCCCCCCC(O)CN(CCCO[C@@H]1CO[C@H]2[C@@H]1OC[C@H]2OCCCN(CC(O)CCCCCCCCCCCC)CC(O)CCCCCCCCCCCC)CC(O)CCCCCCCCCCCC (stereo partly shown) [reference compound] | – | hEPO 6 Hr (ng/ml) Mean [2]: 13.9 ng/mL |
